Data taken from ChEMBL document CHEMBL1201862, “PubChem BioAssay data set” (2004).
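48-hour exposure; five concentrations; linearly interpolated endpoints. GI50 is the concentration that inhibits growth by half.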 Activity calls are given as the source filed them. No stated cut-off is given here; in the data, active = GI50 up to about 1.1 µM and inactive = higher.

Assays:
Test in all cases: NCI tumour cell line growth inhibition, 48 h
DU-145 = tested on: DU-145
MOLT-4 = tested on: MOLT-4
COLO 205 = tested on: COLO 205
OVCAR-8 = tested on: OVCAR-8
SNB-19 = tested on: SNB-19
SK-OV-3 = tested on: SK-OV-3
LOX IMVI = tested on: LOX IMVI
MDA-MB-231 = tested on: MDA-MB-231
KM12 = tested on: KM12
SK-MEL-28 = tested on: SK-MEL-28
OVCAR-5 = tested on: OVCAR-5
T47D = tested on: T47D
HOP-62 = tested on: HOP-62
SK-MEL-2 = tested on: SK-MEL-2
RPMI-8226 = tested on: RPMI-8226
SW-620 = tested on: SW-620
RXF 393 = tested on: RXF 393
MDA-N = tested on: MDA-N
CCRF-CEM = tested on: CCRF-CEM
HCC 2998 = tested on: HCC 2998

Measured: GI50

NC(CC1=CS(=O)(=O)c2ccc(Cl)cc21)C(=O)O (stereo not given)
inactive: DU-145 > 100 µM | MOLT-4 > 100 µM | COLO 205 > 100 µM | OVCAR-8 > 100 µM | SNB-19 > 100 µM | SK-OV-3 > 100 µM | LOX IMVI > 100 µM | MDA-MB-231 > 100 µM | KM12 > 100 µM | SK-MEL-28 > 100 µM | OVCAR-5 > 100 µM | T47D > 100 µM | HOP-62 > 100 µM | SK-MEL-2 > 100 µM | RPMI-8226 > 100 µM | SW-620 > 100 µM | RXF 393 > 100 µM | MDA-N > 100 µM

Cc1cccc(C(C)O)n1 (stereo not given)
inactive: DU-145 > 100 µM | MOLT-4 > 100 µM | COLO 205 > 100 µM | OVCAR-8 > 100 µM | SNB-19 > 100 µM | CCRF-CEM > 100 µM | SK-OV-3 > 100 µM | MDA-MB-231 > 100 µM | KM12 > 100 µM | SK-MEL-28 > 100 µM | OVCAR-5 > 100 µM | T47D > 100 µM | HOP-62 > 100 µM | HCC 2998 > 100 µM | SK-MEL-2 > 100 µM | SW-620 > 100 µM | MDA-N > 100 µM

CCC(=O)Nc1ccc(/N=C/c2cccc(Oc3ccccc3)c2)cc1
inactive: DU-145 46.2 µM | MOLT-4 23.9 µM | COLO 205 44.6 µM | OVCAR-8 22.3 µM | SNB-19 > 100 µM | CCRF-CEM 12.6 µM | SK-OV-3 > 100 µM | LOX IMVI 29.6 µM | KM12 > 100 µM | SK-MEL-28 86.9 µM | T47D 91 µM | HOP-62 37.2 µM | SK-MEL-2 > 100 µM | RPMI-8226 21.8 µM | SW-620 37 µM | RXF 393 50.9 µM | MDA-N 40.1 µM

O=[N+]([O-])C(=C1NCCN1)/C(Cl)=C(/Cl)N1CCOCC1
inactive: DU-145 > 100 µM | MOLT-4 > 100 µM | COLO 205 > 100 µM | OVCAR-8 > 100 µM | SNB-19 > 100 µM | CCRF-CEM > 100 µM | SK-OV-3 > 100 µM | MDA-MB-231 > 100 µM | KM12 > 100 µM | SK-MEL-28 > 100 µM | OVCAR-5 > 100 µM | T47D > 100 µM | HOP-62 > 100 µM | HCC 2998 > 100 µM | SK-MEL-2 > 100 µM | RPMI-8226 > 100 µM | SW-620 > 100 µM | MDA-N > 100 µM

O=C(O)C1C2C=CC(O2)C1C(=O)Nc1ncccn1 (stereo not given)
inactive: DU-145 > 100 µM | MOLT-4 > 100 µM | COLO 205 > 100 µM | OVCAR-8 > 100 µM | SNB-19 > 100 µM | CCRF-CEM > 100 µM | SK-OV-3 > 100 µM | LOX IMVI > 100 µM | MDA-MB-231 > 100 µM | KM12 > 100 µM | SK-MEL-28 > 100 µM | OVCAR-5 > 100 µM | T47D > 100 µM | HOP-62 > 100 µM | SK-MEL-2 > 100 µM | RPMI-8226 > 100 µM | SW-620 > 100 µM | RXF 393 > 100 µM | MDA-N > 100 µM

O=C(O)[C@@]1(Cc2ccc(O)cc2)C[C@@H]2Cc3ccccc3N2N1
inactive: DU-145 > 100 µM | MOLT-4 > 100 µM | COLO 205 > 100 µM | OVCAR-8 > 100 µM | SNB-19 > 100 µM | CCRF-CEM > 100 µM | SK-OV-3 > 100 µM | LOX IMVI > 100 µM | MDA-MB-231 > 100 µM | KM12 > 100 µM | SK-MEL-28 > 100 µM | OVCAR-5 > 100 µM | T47D > 100 µM | HOP-62 > 100 µM | SK-MEL-2 > 100 µM | RPMI-8226 > 100 µM | SW-620 > 100 µM | MDA-N > 100 µM

CN1C2CCC1CN(CCOC(c1ccc(F)cc1)c1ccc(F)cc1)C2
inactive: DU-145 57.5 µM | MOLT-4 23.6 µM | COLO 205 15.3 µM | OVCAR-8 32.4 µM | SNB-19 > 100 µM | CCRF-CEM 36.7 µM | SK-OV-3 42.3 µM | LOX IMVI 19.8 µM | MDA-MB-231 22.9 µM | KM12 21.8 µM | SK-MEL-28 15.5 µM | OVCAR-5 56.6 µM | T47D 24.3 µM | HOP-62 21.4 µM | SK-MEL-2 23.8 µM | RPMI-8226 23.9 µM | SW-620 23.6 µM | RXF 393 16.5 µM | MDA-N 36 µM

Cc1ccc(S(=O)(=O)OC2=C/C(=N\c3onc(C)c3C)c3ccccc3C2=O)cc1
inactive: DU-145 51.6 µM | MOLT-4 4.8 µM | COLO 205 86.5 µM | OVCAR-8 18.3 µM | SNB-19 26.7 µM | SK-OV-3 28.7 µM | LOX IMVI 18.6 µM | MDA-MB-231 19.7 µM | KM12 20.2 µM | SK-MEL-28 44.3 µM | OVCAR-5 20.3 µM | T47D 24.2 µM | HOP-62 23.6 µM | SK-MEL-2 12.9 µM | RPMI-8226 7.96 µM | SW-620 28.2 µM | MDA-N 25.2 µM

C#CC(O)(c1nc2ccccc2s1)c1nc2ccccc2s1
inactive: DU-145 26.4 µM | MOLT-4 28.8 µM | COLO 205 17.7 µM | OVCAR-8 22 µM | SNB-19 36.9 µM | CCRF-CEM 27.4 µM | LOX IMVI 17.8 µM | MDA-MB-231 15.7 µM | KM12 29.4 µM | SK-MEL-28 40.7 µM | OVCAR-5 23.6 µM | T47D 13.8 µM | HOP-62 26.2 µM | SK-MEL-2 16.7 µM | RPMI-8226 21 µM | SW-620 33.7 µM | RXF 393 18.6 µM | MDA-N 21.2 µM

CN1C(=S)C(c2ccccc2)Sc2ccccc21 (stereo not given)
inactive: DU-145 > 100 µM | MOLT-4 7.29 µM | COLO 205 47.4 µM | OVCAR-8 43.3 µM | SNB-19 > 100 µM | CCRF-CEM 8.77 µM | SK-OV-3 42.8 µM | LOX IMVI 77.1 µM | MDA-MB-231 > 100 µM | KM12 63.7 µM | SK-MEL-28 > 100 µM | OVCAR-5 82 µM | T47D 78.5 µM | HOP-62 > 100 µM | RPMI-8226 > 100 µM | RXF 393 50.2 µM | MDA-N 77.8 µM

O=C(O)c1ccc(N/C(=C(/C(Cl)=C(Cl)Cl)[N+](=O)[O-])n2nnc3ccccc32)cc1
inactive: MOLT-4 > 100 µM | COLO 205 > 100 µM | OVCAR-8 > 100 µM | SNB-19 > 100 µM | CCRF-CEM > 100 µM | SK-OV-3 > 100 µM | MDA-MB-231 > 100 µM | KM12 > 100 µM | SK-MEL-28 > 100 µM | OVCAR-5 > 100 µM | T47D > 100 µM | HOP-62 > 100 µM | HCC 2998 > 100 µM | SK-MEL-2 > 100 µM | RPMI-8226 > 100 µM | SW-620 > 100 µM | MDA-N > 100 µM

CCCCn1c(C)c(C(=O)OCC)c2cc(OCc3ccc(C(=O)Nn4c(C)ccc4C)cc3)c(Br)cc21
inactive: DU-145 > 100 µM | MOLT-4 > 100 µM | COLO 205 > 100 µM | OVCAR-8 > 100 µM | SNB-19 > 100 µM | CCRF-CEM > 100 µM | SK-OV-3 > 100 µM | LOX IMVI > 100 µM | KM12 > 100 µM | SK-MEL-28 > 100 µM | OVCAR-5 > 100 µM | T47D > 100 µM | HOP-62 > 100 µM | HCC 2998 > 100 µM | SK-MEL-2 > 100 µM | RPMI-8226 > 100 µM | SW-620 > 100 µM | MDA-N > 100 µM

NCCN1C(=O)c2cc(Cl)c(Cl)cc2C1(O)c1ccc(Cl)cc1 (stereo not given)
inactive: DU-145 2.69 µM | MOLT-4 2.05 µM | COLO 205 1.65 µM | OVCAR-8 2.03 µM | SNB-19 2.82 µM | CCRF-CEM 3.61 µM | SK-OV-3 13.5 µM | LOX IMVI 1.7 µM | MDA-MB-231 2.01 µM | KM12 2.32 µM | SK-MEL-28 1.75 µM | OVCAR-5 3.33 µM | T47D 2.11 µM | HOP-62 1.85 µM | SK-MEL-2 1.84 µM | RPMI-8226 2.44 µM | SW-620 1.9 µM | RXF 393 1.59 µM | MDA-N 1.85 µM

Nc1ccc(C(=O)O)cc1.Nc1nc(N)c2nc[nH]c2n1
inactive: DU-145 13.8 µM | MOLT-4 41.4 µM | COLO 205 25.9 µM | OVCAR-8 22.1 µM | SNB-19 40.7 µM | CCRF-CEM 19.6 µM | SK-OV-3 34.8 µM | LOX IMVI 24.7 µM | MDA-MB-231 45.4 µM | KM12 22.3 µM | SK-MEL-28 33 µM | OVCAR-5 17.1 µM | T47D 3.27 µM | HOP-62 20.7 µM | SK-MEL-2 22.9 µM | RPMI-8226 12.1 µM | SW-620 25.7 µM | RXF 393 12.1 µM | MDA-N 13.9 µM

Cc1ccc(/C=N/Nc2cnccn2)s1
inactive: MOLT-4 65.2 µM | COLO 205 > 100 µM | OVCAR-8 > 100 µM | SNB-19 > 100 µM | CCRF-CEM > 100 µM | SK-OV-3 > 100 µM | LOX IMVI > 100 µM | MDA-MB-231 96.2 µM | KM12 > 100 µM | SK-MEL-28 > 100 µM | OVCAR-5 > 100 µM | T47D > 100 µM | HOP-62 > 100 µM | HCC 2998 > 100 µM | SK-MEL-2 > 100 µM | RPMI-8226 > 100 µM | SW-620 > 100 µM | RXF 393 > 100 µM | MDA-N 99.3 µM
